Legend:
KCC2 = test: Composite score from primary and secondary screening; type: cell-based, mouse; conditions: Natural Compounds
Procedure: The primary screen encompassed three levels of LUC measurements. The first level of screening yielded a total of 137 compounds with cut-off RLU>125% LUC activity. These 137 compounds were subject to second round of screening, which was carried out in duplicate independent assays to yield the top 103 compounds sorted for highest RLU. The 103 compounds were then subjected to a third round of screening carried out in duplicate independent assays to yield the top 40 compounds which were again ranked. The best 22 of these 40 compounds (ranked for highest RLU activity) were subjected to secondary screening: Cultured neurons were treated with the 22 compounds; RT-qPCR and Clomeleon imaging methodologies (Yeo et al., 2009, J Neurosci 29:14652-14662) were used to determine effects of compounds on KCC2 mRNA expression and [Cl—]i, respectively. Each compound was ranked based on composite scores from primary and secondary screening.
To identify KCC2 gene expression enhancing compounds, cultured primary cortical neurons were cultured from KCC2-luciferase(LUC)-knockin (KCC2-LUCki) mice (Liedtke et al., 2013, Small 9:1066-1075; Yeo et al., 2013, Proc Natl Acad Sci USA 110:4315-4320) and used LUC metrics as readout for activity of the proximal KCC2 promoter (2.5 kB (Yeo et al., 2009, J Neurosci 29:14652-14662)), which drives LUC in this mouse transgenic line. A Z′ factor of 0.94 was obtained. This strategy will not select for long-range enhancers of KCC2 gene expression that act outside the 2.5 kB core KCC2 promoter. 1057 compounds, contained in two NCI libraries (FIG. 1), related to inhibition of growth of malignantly transformed cells were screened. Iterative screening followed by measurements of KCC2 mRNA (RT-qPCR) and intracellular chloride ([Cl—]i), using clomeleon chloride indicator protein (Kuner and Augustine, 2000, Neuron 27:447-459; Yeo et al., 2009, J Neurosci 29:14652-14662), led to decreasing numbers of confirmed and re-confirmed hits, and 4 “winner” compounds were selected (FIG. 1 and Table 3).

synaptophysin = test: Immuno-cytochemistry morphometry of primary human cortical neurons, synaptophysin; type: cell-based; conditions: 400 nM KP
Procedure: The neuron-enriched cultures were established from fetal cortical specimens at 15-20 weeks of gestation. The protocols for tissue processing complied with all federal and institutional guidelines. The cultures were plated on PEI (polyethyleneimine solution) substrate and maintained in Neurobasal media supplemented with B27 as previously described (Pelsman et al., 2003, International journal of developmental neuroscience 21:117-124; Yeo et al., 2013, Proc Natl Acad Sci USA 110:4315-4320).
For immunostaining, the cultures were treated for 2-4 days with vehicle or 400 nM KP, fixed with 4% PFA at day 10, and processed for double-staining with anti-KCC2 and anti-synaptophysin or anti-NeuN (see Table 1).
The 0.34 micrometer confocal slices through entire cell layers at different optical fields (n=17-28 for each group) of the fixated cultures were acquired using a Zeiss LSM700 confocal microscope.
Image Z-stacks were analyzed using Imaris 9.2.1 software. Optical density intensity sum values for each stack/channel were divided by corresponding data volumes and the resulting values were normalized to the number of specifically labeled cells within each stack. There were no significant differences in the number of cells between vehicle and KP-treated groups.

CDKs = test: DARTS assay, CDKs; type: binding, rat; conditions: 20 μM KP
Procedure: Cultured primary rat cortical neurons were treated with either vehicle DMSO (0.1%) or 20 μM KP for 30 h. Cells were lysed in ice-cold lysis buffer (Tris.Cl pH8 50 mM, NaCl 150 mM, NP40 0.5%, N-dodecyl-b-D-maltoside 0.5%, Phosphatase Inhibitor (Pierce #88667) and Protease Inhibitor (Roche #11836153001)). Protein concentrations were determined by Bio-Rad DC Protein Assay kit using bovine albumin as standard. All steps were performed on ice. Samples were warmed to room temperature and digested with pronase (final concentration 1:500) for 30 min at 30° C. Digestion was halted using 0.5M EDTA. Only proteins not bound to KP were digested. The protein mixture was dialyzed using dialysis cassettes (Thermo Fisher 66203, 2K MWCO) and analyzed by LC-MS/MS method to identify proteins that are bound to KP, the latter step carried out in the Duke Proteomics Core Laboratory.
A drug affinity responsive target stability (DARTS) assay (Lomenick, et al., 2009, Proc Natl Acad Sci USA 106:21984-21989) was used to study direct binding of KP to GSK3ß (FIG. 8A) in primary cortical neurons. The findings were consistent with previous reports in cell lines (Knockaert, et al., 2002, The Journal of biological chemistry 277:25493-25501) yet novel in primary neurons. […]

δ-cat = test: Nuclear transfer of transfected human δ-cat in N2a cells; type: cell-based, mouse
Excerpt: Plasmid containing human δ-catenin (CTNND2, NM_001288717) open reading frame was obtained from GeneCopeia (EX-A4285-M02) and cloned into pCMV-ENTER vector (Origene PS100001). Site-directed mutagenesis using Phusion DNA Polymerase enzyme (Thermofisher F549L) in conjunction with complementary primers bearing the specific mutation were used to generate the S276A […] mutation S276A. PCR was followed by Dpn1 enzyme digestion to remove parental plasmid DNA. All constructs were verified by sequencing. pCS-CMV-tdTomato plasmid was obtained from Addgene (cat. #30530).
To investigate the relevance of δ-cat residue S276, N2a neural cells were studied because these cells transfect at higher efficiency than primary cortical neurons. In our cultures, N2a cells expressed neuronal ßIII-tubulin in elongated processes as determined by immune-labeling as an indicator of their neuronal differentiation. […] This increase in nuclear transfer was very similar to the trafficking we recorded in primary cortical neurons, thus validating the cell line. […] Of note, there was no increase of nuclear transfer of δ-cat(S276A) upon KP treatment (FIG. 8C and FIG. 8D).

O=C1Cc2c([nH]c3ccc(Br)cc23)-c2ccccc2N1 [kenpaullone, 9-bromo-7,12-dihydro-indolo [3,2-d] [1]benzazepin-6(5H)-one]
Top 2 hits (KCC2): winner
Total Score (KCC2; sum of the three scores): 6
increased synaptophysin expression relative to vehicle (synaptophysin): 54%
binding of KP to CDKs (CDKs): not identified
nuclear transfer of δ-cat (δ-cat; cells transfected with δ-cat(S276A), KP treatment): had no effect
nuclear transfer of δ-cat (δ-cat; cells transfected with δ-cat(WT), KP vs vehicle): significantly enhances

Reference: patent US20220281930A1, “COMPOSITIONS AND METHODS FOR THE TREATMENT OF PATHOLOGICAL PAIN AND ITCH” (DUKE UNIVERSITY, priority 2019, published 2022)
